Here are results for twelve compounds from US11198713B2, “Agents modulating beta-catenin functions and methods thereof” (FOG PHARMACEUTICALS, INC., priority 2017, dated 2021).

For this assay, the target named is T1, full-length beta-catenin (Axin site) (Homo sapiens, UniProt P35222).
T1 construct: 15 nM full-length beta-catenin, 20 nM FITC labeled peptide in buffer
T1 sequence (P35222 1-781): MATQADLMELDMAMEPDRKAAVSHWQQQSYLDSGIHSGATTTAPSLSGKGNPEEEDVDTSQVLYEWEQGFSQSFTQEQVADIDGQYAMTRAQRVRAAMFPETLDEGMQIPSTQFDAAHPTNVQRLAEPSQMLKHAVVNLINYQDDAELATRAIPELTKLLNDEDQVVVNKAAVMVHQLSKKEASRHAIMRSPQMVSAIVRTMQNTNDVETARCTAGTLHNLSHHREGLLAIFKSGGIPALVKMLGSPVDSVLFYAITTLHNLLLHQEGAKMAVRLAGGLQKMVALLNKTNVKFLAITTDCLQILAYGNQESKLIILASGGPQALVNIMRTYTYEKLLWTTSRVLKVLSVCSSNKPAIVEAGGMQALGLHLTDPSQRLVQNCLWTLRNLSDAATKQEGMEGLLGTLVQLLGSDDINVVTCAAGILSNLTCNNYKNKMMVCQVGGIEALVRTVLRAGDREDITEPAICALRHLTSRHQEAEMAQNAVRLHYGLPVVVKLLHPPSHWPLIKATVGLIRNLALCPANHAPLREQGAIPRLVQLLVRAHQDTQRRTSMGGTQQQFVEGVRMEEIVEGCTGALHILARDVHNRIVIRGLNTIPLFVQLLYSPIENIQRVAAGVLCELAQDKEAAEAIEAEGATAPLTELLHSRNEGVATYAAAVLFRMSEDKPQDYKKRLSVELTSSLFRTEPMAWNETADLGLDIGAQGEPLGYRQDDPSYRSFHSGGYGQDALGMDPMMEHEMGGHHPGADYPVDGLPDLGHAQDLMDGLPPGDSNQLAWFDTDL
In words: Competition fluorescence polarization assay (Axin site probe). Format: binding. As to conditions: competition fluorescence polarization, Table 2; read-out: in vitro FP EC50. The essentials:
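Competition FP: 15 nM full-length β-catenin pre-incubated 5 min with 20 nM FITC-labelled stapled Axin-site peptide, then titrated peptide added (3-fold series from 5 μM) for 15 min in the dark. Buffer 50 mM Tris pH 8.0, 250 mM NaCl, 2% glycerol, 0.5 mM EDTA; duplicate reads.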
(In general: Fluorescence polarisation rises when a labelled molecule tumbles more slowly, as on binding a larger partner.)

For orientation: EC50 means the concentration giving half of the maximal effect. As to `CC[C@H](C)[C@@H]1NC(=O)[C@H](Cc2ccccn2)NC(=O)[C@H](C)NC(=O)[C@H](CC(=O)O)NC(=O)[C@H](CC(C)C)NC(=O)[C@H]([C@@H](C)CC)NC(=O)[C@](C)(NC(=O)[C@H](C)NC(C)=O)CCCCCCC=CCOC(=O)N2CC[C@@](C(=O)N[C@@H](Cc3cccnc3)C(=O)N[C@H](C(=O)N[C@@H](Cc3c[nH]c4ccccc34)C(N)=O)C(C)C)(C2)NC1=O` (single isomer, unassigned) [FP0573c Isomer 2, Ac-A-R8-I-L-D-A-2pyr-I-MB-3pyr-V-W-NH2], the concentration giving a half-maximal response (EC50) is above 5 µM.
The value for `CC[C@H](C)[C@@H]1NC(=O)[C@H](Cc2ccccn2)NC(=O)[C@H](C)NC(=O)[C@H](CC(=O)O)NC(=O)[C@H](CC(C)C)NC(=O)[C@H]([C@@H](C)CC)NC(=O)[C@](C)(NC(=O)[C@H](C)NC(C)=O)CCCCCCC=CCOC(=O)N2CC[C@@](C(=O)N[C@@H](CC3CC3)C(=O)N[C@H](C(=O)N[C@@H](Cc3c[nH]c4ccccc34)C(N)=O)C(C)C)(C2)NC1=O` (single isomer, unassigned) [FP0574c Isomer 1, Ac-A-R8-I-L-D-A-2pyr-I-MB-cpa-V-W-NH2] was above 5 µM.
To `CC[C@H](C)[C@@H]1NC(=O)[C@H](Cc2ccccn2)NC(=O)[C@H](C)NC(=O)[C@H](CC(=O)O)NC(=O)[C@H](CC(C)C)NC(=O)[C@H]([C@@H](C)CC)NC(=O)[C@](C)(NC(=O)[C@H](C)NC(C)=O)CCCCCCC=CCOC(=O)N2CC[C@@](C(=O)N[C@@H](CC3CC3)C(=O)N[C@H](C(=O)N[C@@H](Cc3c[nH]c4ccccc34)C(N)=O)C(C)C)(C2)NC1=O` (single isomer, unassigned) [FP0574c Isomer 2, Ac-A-R8-I-L-D-A-2pyr-I-MB-cpa-V-W-NH2] belongs above 5 µM; to `CC[C@H](C)[C@@H]1NC(=O)[C@H](Cc2ccccn2)NC(=O)[C@H](C)NC(=O)[C@H](CC(=O)O)NC(=O)[C@H](CC(C)C)NC(=O)[C@H]([C@@H](C)CC)NC(=O)[C@](C)(NC(=O)[C@H](C)NC(C)=O)CCCCCCC=CCOC(=O)N2CC[C@@](C(=O)N[C@@H](Cc3ccc(OC)cc3)C(=O)N[C@H](C(=O)N[C@@H](Cc3c[nH]c4ccccc34)C(N)=O)C(C)C)(C2)NC1=O` (single isomer, unassigned) [FP0575c Isomer 1, Ac-A-R8-I-L-D-A-2pyr-I-MB-MeY-V-W-NH2], above 5 µM.
With `CC[C@H](C)[C@@H]1NC(=O)[C@H](Cc2ccccn2)NC(=O)[C@H](C)NC(=O)[C@H](CC(=O)O)NC(=O)[C@H](CC(C)C)NC(=O)[C@H]([C@@H](C)CC)NC(=O)[C@](C)(NC(=O)[C@H](C)NC(C)=O)CCCCCCC=CCOC(=O)N2CC[C@@](C(=O)N[C@@H](Cc3ccc(OC)cc3)C(=O)N[C@H](C(=O)N[C@@H](Cc3c[nH]c4ccccc34)C(N)=O)C(C)C)(C2)NC1=O` (single isomer, unassigned) [FP0575c Isomer 2, Ac-A-R8-I-L-D-A-2pyr-I-MB-MeY-V-W-NH2], the EC50 was above 5 µM.
Consider `CC[C@H](C)[C@@H]1NC(=O)[C@H](Cc2ccccn2)NC(=O)[C@H](C)NC(=O)[C@H](CC(=O)O)NC(=O)[C@H](CC(C)C)NC(=O)[C@H]([C@@H](C)CC)NC(=O)[C@](C)(NC(=O)[C@H](C)NC(C)=O)CCCCCCC=CCOC(=O)N2CC[C@@](C(=O)N[C@@H](Cc3ccc(F)cc3)C(=O)N[C@H](C(=O)N[C@@H](Cc3c[nH]c4ccccc34)C(N)=O)C(C)C)(C2)NC1=O` (single isomer, unassigned) [FP0576c Isomer 1, Ac-A-R8-I-L-D-A-2pyr-I-MB-4FF-V-W-NH2], for which the EC50 was above 5 µM.
The value for `CC[C@H](C)[C@@H]1NC(=O)[C@H](Cc2ccccn2)NC(=O)[C@H](C)NC(=O)[C@H](CC(=O)O)NC(=O)[C@H](CC(C)C)NC(=O)[C@H]([C@@H](C)CC)NC(=O)[C@](C)(NC(=O)[C@H](C)NC(C)=O)CCCCCCC=CCOC(=O)N2CC[C@@](C(=O)N[C@@H](Cc3ccc(F)cc3)C(=O)N[C@H](C(=O)N[C@@H](Cc3c[nH]c4ccccc34)C(N)=O)C(C)C)(C2)NC1=O` (single isomer, unassigned) [FP0576c Isomer 2, Ac-A-R8-I-L-D-A-2pyr-I-MB-4FF-V-W-NH2] was above 5 µM.
To `CC[C@H](C)[C@@H]1NC(=O)[C@H](Cc2ccccn2)NC(=O)[C@H](C)NC(=O)[C@H](CC(=O)O)NC(=O)[C@H](CC(C)C)NC(=O)[C@H]([C@@H](C)CC)NC(=O)[C@](C)(NC(=O)[C@H](C)NC(C)=O)CCCCCCC=CCOC(=O)N2CC[C@@](C(=O)N[C@@H](Cc3cccc4ccccc34)C(=O)N[C@H](C(=O)N[C@@H](Cc3c[nH]c4ccccc34)C(N)=O)C(C)C)(C2)NC1=O` (single isomer, unassigned) [FP0577c Isomer 1, Ac-A-R8-I-L-D-A-2pyr-I-MB-1NapA-V-W-NH2] belongs above 5 µM; to `CC[C@H](C)[C@@H]1NC(=O)[C@H](Cc2ccccn2)NC(=O)[C@H](C)NC(=O)[C@H](CC(=O)O)NC(=O)[C@H](CC(C)C)NC(=O)[C@H]([C@@H](C)CC)NC(=O)[C@](C)(NC(=O)[C@H](C)NC(C)=O)CCCCCCC=CCOC(=O)N2CC[C@@](C(=O)N[C@@H](Cc3ccc(C)cc3)C(=O)N[C@H](C(=O)N[C@@H](Cc3c[nH]c4ccccc34)C(N)=O)C(C)C)(C2)NC1=O` (single isomer, unassigned) [FP0578c Isomer 1, Ac-A-R8-I-L-D-A-2pyr-I-MB-4MeF-V-W-NH2], above 5 µM; to `CC[C@H](C)[C@@H]1NC(=O)[C@H](Cc2ccccn2)NC(=O)[C@H](C)NC(=O)[C@H](CC(=O)O)NC(=O)[C@H](CC(C)C)NC(=O)[C@H]([C@@H](C)CC)NC(=O)[C@](C)(NC(=O)[C@H](C)NC(C)=O)CCCCCCC=CCOC(=O)N2CC[C@@](C(=O)N[C@@H](Cc3ccc(C)cc3)C(=O)N[C@H](C(=O)N[C@@H](Cc3c[nH]c4ccccc34)C(N)=O)C(C)C)(C2)NC1=O` (single isomer, unassigned) [FP0578c Isomer 2, Ac-A-R8-I-L-D-A-2pyr-I-MB-4MeF-V-W-NH2], above 5 µM.
In the case of `CC[C@H](C)[C@@H]1NC(=O)C2(NC(=O)[C@H](CCC(N)=O)NC(=O)[C@@H]3CCCN3C(C)=O)CN(C2)C(=O)OCC=CCC[C@](C)(C(=O)N[C@@H](Cc2c[nH]cn2)C(=O)N[C@H](C(=O)N[C@@H](CCCNC(=N)N)C(=O)N[C@@H](CCCNC(=N)N)C(=O)N[C@H](C(=O)N[C@@H](Cc2c[nH]c3ccccc23)C(=O)N[C@@H](CCCNC(=N)N)C(N)=O)C(C)C)C(C)C)NC(=O)[C@H](CC(=O)O)NC(=O)[C@H](CC(C)C)NC1=O` (single isomer, unassigned) [FP0721c, Ac-P-Q-MA-I-L-D-R4-H-V-R-R-V-W-R-NH2], the concentration giving a half-maximal response (EC50) is 0.5 to 5 µM.
To `CC[C@H](C)[C@@H]1NC(=O)C2(NC(=O)[C@H](CCC(N)=O)NC(=O)[C@@H]3CCCN3C(C)=O)CN(C2)C(=O)OCC=CCCC[C@](C)(C(=O)N[C@@H](Cc2c[nH]cn2)C(=O)N[C@H](C(=O)N[C@@H](CCCNC(=N)N)C(=O)N[C@@H](CCCNC(=N)N)C(=O)N[C@H](C(=O)N[C@@H](Cc2c[nH]c3ccccc23)C(=O)N[C@@H](CCCNC(=N)N)C(N)=O)C(C)C)C(C)C)NC(=O)[C@H](CC(=O)O)NC(=O)[C@H](CC(C)C)NC1=O` (single isomer, unassigned) [FP0723c, Ac-P-Q-MA-I-L-D-R5-H-V-R-R-V-W-R-NH2] belongs 0.5 to 5 µM.
